Assay results reported in patent US20260007684A1, “AMIDE DERIVATIVES FOR INHIBITING NLRP3 AND USES THEREOF” (Ventus Therapeutics U.S., Inc., priority 2023, published 2026).
Like-named read-outs stand apart in the source and are kept apart here. Values belong to the compound of their own block, whether it stands above or below them.

Columns and labels:
[1] = biological target: T1, human NLRP3 (Homo sapiens (Human), UniProt Q96P20); assay: Human PBMC NLRP3 Assay (LPS priming, ATP stimulation, cytokine measurement); format: cell-based
T1 sequence (Q96P20 whole entry): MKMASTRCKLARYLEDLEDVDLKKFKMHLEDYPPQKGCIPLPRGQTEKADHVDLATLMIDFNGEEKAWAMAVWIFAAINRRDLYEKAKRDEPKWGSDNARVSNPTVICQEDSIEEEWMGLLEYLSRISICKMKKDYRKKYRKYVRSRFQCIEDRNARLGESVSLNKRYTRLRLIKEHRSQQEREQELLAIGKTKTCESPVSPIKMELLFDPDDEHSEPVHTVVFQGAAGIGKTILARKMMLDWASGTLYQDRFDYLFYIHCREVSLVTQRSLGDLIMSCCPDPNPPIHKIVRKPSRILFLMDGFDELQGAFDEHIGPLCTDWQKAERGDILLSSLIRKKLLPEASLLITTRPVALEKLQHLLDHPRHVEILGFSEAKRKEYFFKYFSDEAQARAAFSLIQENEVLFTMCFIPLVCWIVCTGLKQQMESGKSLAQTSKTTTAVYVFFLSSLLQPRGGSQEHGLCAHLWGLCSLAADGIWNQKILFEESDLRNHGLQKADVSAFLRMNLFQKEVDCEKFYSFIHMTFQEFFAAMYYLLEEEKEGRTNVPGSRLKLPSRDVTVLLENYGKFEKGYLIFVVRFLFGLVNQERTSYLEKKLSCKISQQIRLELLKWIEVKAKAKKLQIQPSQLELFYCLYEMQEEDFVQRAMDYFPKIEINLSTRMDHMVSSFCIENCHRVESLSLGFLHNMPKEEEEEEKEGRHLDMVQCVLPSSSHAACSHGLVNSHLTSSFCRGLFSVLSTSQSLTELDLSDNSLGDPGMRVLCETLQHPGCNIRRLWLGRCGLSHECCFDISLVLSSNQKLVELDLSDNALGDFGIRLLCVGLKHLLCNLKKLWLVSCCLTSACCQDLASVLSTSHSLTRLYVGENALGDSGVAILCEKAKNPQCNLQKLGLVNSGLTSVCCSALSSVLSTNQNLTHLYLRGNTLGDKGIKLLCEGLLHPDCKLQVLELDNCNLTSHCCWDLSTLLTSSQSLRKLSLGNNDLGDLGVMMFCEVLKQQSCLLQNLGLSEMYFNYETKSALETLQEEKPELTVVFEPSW

[2] = biological target: T1, human NLRP3; assay: Scintillation Proximity (SPA) NLRP3 Assay: displacement of 3H-MCC950; format: binding; settings: for IC50: read-out: SPA IC50
[3] = biological target: T1, human NLRP3; assay: Human Whole Blood (hWB) NLRP3 Assay (LPS/ATP, IL-1β); format: cell-based
[4] = biological target: mouse NLRP3 (Mus musculus (Mouse), UniProt Q8R4B8); assay: Mouse Whole Blood (mWB) NLRP3 Assay (LPS/ATP, IL-1b); format: cell-based
mouse NLRP3, sequence (Q8R4B8 whole entry): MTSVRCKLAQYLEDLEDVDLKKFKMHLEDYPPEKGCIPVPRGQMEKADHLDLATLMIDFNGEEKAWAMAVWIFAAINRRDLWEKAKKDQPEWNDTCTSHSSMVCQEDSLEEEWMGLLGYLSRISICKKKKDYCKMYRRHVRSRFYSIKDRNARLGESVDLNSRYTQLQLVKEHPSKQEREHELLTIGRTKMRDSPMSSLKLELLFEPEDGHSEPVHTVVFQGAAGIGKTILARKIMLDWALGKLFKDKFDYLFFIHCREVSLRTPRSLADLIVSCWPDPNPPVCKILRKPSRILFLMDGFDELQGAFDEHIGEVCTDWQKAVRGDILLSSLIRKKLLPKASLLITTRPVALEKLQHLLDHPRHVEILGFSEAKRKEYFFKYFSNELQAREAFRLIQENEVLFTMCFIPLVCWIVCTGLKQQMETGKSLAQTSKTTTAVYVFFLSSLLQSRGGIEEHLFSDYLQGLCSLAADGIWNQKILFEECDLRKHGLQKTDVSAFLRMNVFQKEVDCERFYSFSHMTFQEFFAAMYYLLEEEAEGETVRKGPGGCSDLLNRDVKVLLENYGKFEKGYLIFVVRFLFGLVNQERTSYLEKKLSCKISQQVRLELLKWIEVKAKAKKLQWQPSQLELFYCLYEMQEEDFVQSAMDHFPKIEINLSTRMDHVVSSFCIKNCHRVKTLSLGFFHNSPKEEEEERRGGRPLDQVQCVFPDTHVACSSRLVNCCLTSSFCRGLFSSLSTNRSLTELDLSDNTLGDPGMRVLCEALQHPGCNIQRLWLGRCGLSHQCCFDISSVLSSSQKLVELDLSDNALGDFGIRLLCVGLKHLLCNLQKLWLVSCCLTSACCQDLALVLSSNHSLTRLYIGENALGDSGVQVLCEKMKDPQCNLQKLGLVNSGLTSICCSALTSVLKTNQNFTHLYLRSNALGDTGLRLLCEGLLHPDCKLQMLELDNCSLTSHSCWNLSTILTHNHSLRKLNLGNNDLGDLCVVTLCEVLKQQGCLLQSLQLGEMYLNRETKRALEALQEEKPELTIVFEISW
Description: Reagents: The following reagents were used: blood collection tubes (Heparin); U-bottom 96-well tissue culture (Falcon 353077); HBSS for LPS, ATP and compound dilutions (Gibco 24020-117); and LPS, E. coli serotype 026:B6 (Sigma L-2654).
Mouse IL-1b MSD assay: Blood was drawn from female CD1 mice (9 to 10 weeks) by cardiac puncture. Blood was plated (135 μL) per well in 96-well U-bottom plates. 7.5 μL of 20×LPS (20 μg/mL, final concentration of 1 μg/mL) was added and mixed by gentle pipetting, and the mixture was incubated in a TC incubator for five hours. 7.5 μL of 20× compound or vehicle per well was added and mixed by gentle pipetting. Compounds were diluted 1/50 in HBSS to prepare a 20× dilution curve in […].
The mixture was incubated for 30 minutes in a TC incubator with shaking (450 rpm). 5 μl of 31×ATP (155 mM, final concentration of 5 mM) was added and mixed by gentle pipetting. The mixture was incubated in a TC incubator for 30 minutes with shaking (450 rpm). The plate was centrifuged for 10 minutes at 800×g and −70 μL of plasma was removed. Plasma was frozen if required. Mouse IL-1b was analyzed with IL-1b MSD assay (K152TUK).
Compounds were added 30 minutes before priming the cells with LPS when TNFα was required to be quantified in the cytokine panel to confirm selectivity.

[5] = PBMC IC50, human PBMC, LPS priming, ATP stimulation
[6] = hWB IC50, human whole blood, LPS/ATP, IL-1β
[7] = mouse whole blood, LPS/ATP, IL-1b
[8] = human PBMC, LPS priming, ATP stimulation, read-out: PBMC IC50
[9] = human whole blood, LPS/ATP, IL-1β, read-out: hWB IC50
[10] = relative to Comparative Example A*

Structure (SMILES): C[C@@H]1C[C@@H](NC(=O)C2(c3ccc(C(F)(F)F)cc3)CC2)[C@H]2CC[C@@H]1N2c1nnn[nH]1 [79A*, N-((1R,2R,4R,5S)-4-methyl-8-(1H-tetrazol-5-yl)-8-azabicyclo[3.2.1]octan-2-yl)-1-(4-(trifluoromethyl)phenyl)cyclopropane-1-carboxamide]
IC50 [1, 5]: < 10 nM | IC50 ([2]; displacement of 3H-MCC950): < 1000 nM | IC50 [3, 6]: < 1000 nM | IC50 [4, 7]: < 1000 nM

Structure (SMILES): O=C(N[C@@H]1CC[C@H]2CC[C@@H]1N2c1nnn[nH]1)C1(c2ccc(C(F)(F)F)cc2O)CC1 (single isomer, unassigned) [34C*]
IC50 [1, 5]: 10 to 100 nM | IC50 ([2]; displacement of 3H-MCC950): < 1000 nM | IC50 [3, 6]: < 1000 nM | IC50 [4, 7]: < 1000 nM

Structure (SMILES): O=C(N[C@@H]1CCCCN(c2nnn[nH]2)C1)C1(c2ccc(Cl)cc2)CC1 [Compound 51A, 1-(4-chlorophenyl)-N-[(3R)-1-(1H-tetrazol-5-yl)azepan-3-yl]cyclopropanecarboxamide]
IC50 [1, 8]: 10 to 100 nM | IC50 ([1]; read-out: PBMC IC50): 44 nM | fold increase in potency as measured by PBMC IC50 ([1]; relative to Compound 10A): 48 fold | IC50 ([2]; displacement of 3H-MCC950): 1000 to 10000 nM | IC50 [2]: 2200 nM | fold increase in binding activity (SPA IC50) ([2]; relative to Compound 10A): > 4 fold | IC50 [3, 9]: < 1000 nM | IC50 ([3]; read-out: hWB IC50): 720 nM | fold increase in potency as measured by hWB IC50 ([3]; relative to Compound 10A): > 10 fold | IC50 [4]: 1800 nM | IC50 [4, 7]: 1000 to 2000 nM

Structure (SMILES): C[C@@H]1C[C@@H](NC(=O)C2(c3ccc(OC(F)F)cc3)CC2)[C@H]2CC[C@@H]1N2c1nnn[nH]1 (single isomer, unassigned) [35A*]
IC50 [1, 5]: < 10 nM | IC50 ([2]; displacement of 3H-MCC950): < 1000 nM | IC50 [3, 6]: < 1000 nM | IC50 [4, 7]: < 1000 nM

Next, values leading:

IC50 [1, 8]: < 10 nM | IC50 ([1]; read-out: PBMC IC50): 4.3 nM | IC50 ([2]; displacement of 3H-MCC950): < 1000 nM | IC50 [2]: 41 nM | IC50 [3, 9]: < 1000 nM | IC50 ([3]; read-out: hWB IC50): 61 nM | IC50 [4]: 82 nM | IC50 [4, 7]: < 1000 nM
Structure (SMILES): C[C@H]1C[C@@H](NC(=O)C2(c3ccc(C(F)(F)F)cc3O)CC2)CN(c2nnn[nH]2)C1 [Compound 16A, 1-(2-hydroxy-4-(trifluoromethyl)phenyl)-N-((3R,5S)-5-methyl-1-(1H-tetrazol-5-yl)piperidin-3-yl)cyclopropane-1-carboxamide]

IC50 [1, 8]: > 500 nM | IC50 ([1]; read-out: PBMC IC50): 2100 nM | fold increase in potency as measured by PBMC IC50 ([1]; relative to Comparative Example F): 4 fold | fold increase in potency as measured by PBMC IC50 ([1]; relative to Comparative Example G): > 47 fold | fold increase in potency as measured by PBMC IC50 ([1]; relative to Comparative Example H): 5 fold | fold increase in potency as measured by PBMC IC50 ([1]; relative to Comparative Example J1): > 47 fold | fold increase in potency as measured by PBMC IC50 ([1]; relative to Comparative Example J2): > 47 fold | IC50 ([2]; displacement of 3H-MCC950): 1000 to 10000 nM | IC50 [2]: 9500 nM | fold increase in binding activity (SPA IC50) [2, 10]: > 40 fold | IC50 [3, 9]: > 3000 nM | IC50 ([3]; read-out: hWB IC50): 7300 nM | fold increase in potency as measured by hWB IC50 [3, 10]: > 6 fold | IC50 [4]: 1900 nM | IC50 [4, 7]: 1000 to 2000 nM | fold increase in potency as measured by mWB IC50 ([4]; relative to Comparative Example B1): 26 fold
Structure (SMILES): O=C(N[C@@H]1CCCN(c2nnn[nH]2)C1)C1(c2ccc(Cl)cc2)CC1 [Compound 10A, (R)-N-(1-(1H-tetrazol-5-yl)piperidin-3-yl)-1-(4-chlorophenyl)cyclopropane-1-carboxamide]

IC50 [1, 8]: 10 to 100 nM | IC50 ([1]; read-out: PBMC IC50): 100 nM | fold increase in potency as measured by PBMC IC50 ([1]; relative to Compound 10A): 21 fold | IC50 ([2]; displacement of 3H-MCC950): < 1000 nM | IC50 [2]: 860 nM | fold increase in binding activity (SPA IC50) ([2]; relative to Compound 10A): 11 fold | IC50 [3, 9]: 2000 to 3000 nM | IC50 ([3]; read-out: hWB IC50): 2500 nM | fold increase in potency as measured by hWB IC50 ([3]; relative to Compound 10A): 3 fold | IC50 [4]: 170 nM | IC50 [4, 7]: < 1000 nM | fold increase in potency as measured by mWB IC50 ([4]; relative to Compound 10A): 11 fold
Structure (SMILES): C[C@H]1C[C@@H](NC(=O)C2(c3ccc(Cl)cc3)CC2)CN(c2nnn[nH]2)C1 [Compound 46A, 1-(4-chlorophenyl)-N-((3R,5S)-5-methyl-1-(1H-tetrazol-5-yl)piperidin-3-yl)cyclopropane-1-carboxamide]

IC50 [1, 8]: 100 to 500 nM | IC50 ([2]; displacement of 3H-MCC950): 1000 to 10000 nM | IC50 [3, 9]: 2000 to 3000 nM | IC50 [4, 7]: 2000 to 3000 nM
Structure (SMILES): C[C@H]1CCN(c2nnn[nH]2)C[C@@H]1NC(=O)C1(c2ccc(Cl)cc2)CC1 [Compound 49C, 1-(4-chlorophenyl)-N-[(3R,4S)-4-methyl-1-(1H-tetrazol-5-yl)-3-piperidyl]cyclopropanecarboxamide]
